≈ marks a conversion by molar mass, not a printed value. Where two headings read alike, the source gives them in different places.
Tests used:
HIV-1SF162 virus strain [1] = assay: Inhibition activity on TZM-bl cells infected with HIV-1SF162
TZM-bl cells = assay: Cytotoxicity (CC50) in TZM-bl cells; assay type: cell-based; details: TZM-bl cells (Table 3)
CCR5 protein = assay: Thermal stability of protein test (CPM-assay); assay type: binding; details: for Tm (° C.): thermal stability of CCR5 protein with compound, CPM dye
Text: Experimental theory: many cysteines are present in CCR5 protein sequence. Cysteines located in loop region form disulfide bonds to stabilize the tertiary structure of the protein. Some free cysteines in reduced state are located in the transmembrane region. Under excitation by incident light of 387 nm, the combination of free sulfhydryl and fluorescent dye CPM can emit excitation light of 436 nm. […] The free sulfhydryls originally located in the transmembrane region expose and combine with the fluorescent dye. And then the detector will detect changes in signal enhancement. Therefore, the thermal stability of membrane proteins can be determined according to the temperature (Tm) at the midpoint of changes in signal intensity.
Experimental steps: Upon preliminary purification, the obtained protein solution was transferred into a small concentration tube (100 kd, 500 ul) for concentration (1000 rcf, 12 min, 4° C.). After centrifugation, the concentration tube was taken out and flicked to prevent protein coagulation due to high local concentration. The final concentrated volume was about 50 μl. 117 μl of purified solution (volume is suitable to make the total volume up to 120 μl), 1 μl fluorescent dye cpm (in-house prepared) and 2 μl of concentrated protein solution (the amount of added protein is 3-5 μg according to the calculated concentration of the protein solution and the concentrated volume) were added to 2 ml Ependorf tube and incubated at room temperature for 20 min. And then the mixture was added to the cuvette (Qwan) and put in the testing equipment Cary, wherein the surface of the frosted glass faced out. The temperature was set in the range of 4-90° C. with 1° C. increase per minute and the program was run. Tm value can be obtained by processing the data and graph with a mapping software and can be used to compare the difference of protein thermal stability under different conditions.

CCR5 = CCR5 (Homo sapiens (Human), UniProt P51681); assay: Calcium flux inhibition experiment; assay type: cell-based; details: for IC50: HEK293/CCR5-Gα16 cell line, calcium flux, read-out: CCR5 IC50; for calcium influx inhibition effect in words, versus positive control compounds: conclusion from Table 1
Sequence of CCR5 (P51681 whole entry): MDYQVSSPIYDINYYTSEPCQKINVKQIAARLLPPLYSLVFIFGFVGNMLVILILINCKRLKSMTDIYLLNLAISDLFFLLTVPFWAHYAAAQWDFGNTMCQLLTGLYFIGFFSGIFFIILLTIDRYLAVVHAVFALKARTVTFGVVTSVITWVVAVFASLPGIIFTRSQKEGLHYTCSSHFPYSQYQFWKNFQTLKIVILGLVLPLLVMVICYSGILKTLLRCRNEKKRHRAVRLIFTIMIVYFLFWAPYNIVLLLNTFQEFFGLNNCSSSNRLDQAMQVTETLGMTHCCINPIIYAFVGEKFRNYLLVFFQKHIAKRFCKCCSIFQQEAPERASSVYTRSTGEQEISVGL

hERG = hERG (Homo sapiens (Human), UniProt Q12809)
Sequence of hERG (Q12809 whole entry): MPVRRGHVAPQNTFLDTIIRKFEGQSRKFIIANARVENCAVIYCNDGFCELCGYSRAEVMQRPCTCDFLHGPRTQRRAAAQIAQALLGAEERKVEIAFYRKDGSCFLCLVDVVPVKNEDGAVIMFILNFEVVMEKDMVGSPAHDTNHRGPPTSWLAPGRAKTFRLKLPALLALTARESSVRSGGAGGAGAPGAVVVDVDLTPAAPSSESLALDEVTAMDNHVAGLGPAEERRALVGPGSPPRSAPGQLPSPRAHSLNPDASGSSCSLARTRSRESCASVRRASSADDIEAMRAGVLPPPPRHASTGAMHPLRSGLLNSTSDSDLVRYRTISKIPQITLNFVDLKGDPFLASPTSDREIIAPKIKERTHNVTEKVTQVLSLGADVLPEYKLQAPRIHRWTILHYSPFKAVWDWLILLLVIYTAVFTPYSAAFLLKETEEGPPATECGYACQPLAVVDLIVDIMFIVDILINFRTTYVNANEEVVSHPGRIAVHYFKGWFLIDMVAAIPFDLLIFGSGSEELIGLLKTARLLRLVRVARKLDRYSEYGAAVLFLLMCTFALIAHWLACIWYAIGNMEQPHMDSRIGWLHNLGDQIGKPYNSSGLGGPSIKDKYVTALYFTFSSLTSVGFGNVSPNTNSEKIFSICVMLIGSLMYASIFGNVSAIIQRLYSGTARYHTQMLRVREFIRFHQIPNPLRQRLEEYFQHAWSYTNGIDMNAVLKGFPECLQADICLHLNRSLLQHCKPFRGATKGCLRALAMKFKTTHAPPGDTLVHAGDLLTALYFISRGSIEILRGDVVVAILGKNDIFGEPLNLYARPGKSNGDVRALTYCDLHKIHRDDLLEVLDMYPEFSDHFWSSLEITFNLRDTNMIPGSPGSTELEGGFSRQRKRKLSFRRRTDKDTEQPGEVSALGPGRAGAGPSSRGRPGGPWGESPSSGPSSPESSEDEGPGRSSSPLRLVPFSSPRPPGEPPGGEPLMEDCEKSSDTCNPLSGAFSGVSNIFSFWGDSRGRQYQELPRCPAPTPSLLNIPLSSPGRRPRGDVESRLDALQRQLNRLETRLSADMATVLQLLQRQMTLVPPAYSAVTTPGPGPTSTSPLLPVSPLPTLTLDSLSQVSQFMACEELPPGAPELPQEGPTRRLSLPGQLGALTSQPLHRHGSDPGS
Experimental: CHO-hERG cells which have been incubated overnight were added with sample buffer and incubated for 90 minutes at room temperature in darkness.
The sample buffer was removed and assay buffer was added.
The compound is added to the cell plate and incubated for 20 minutes in darkness.
Cell plate was placed into FDSS. The fluorescence signal was recorded every second for 10 seconds. Exciting buffer was added to the cells at the 10th second and the fluorescence signal was recorded every second for 180 seconds

HIV-1SF162 virus strain [2] = assay: Inhibition of viral replication in HOS-CD4-CCR5 cells infected with HIV-1SF162; assay type: cell-based; details: Human immunodeficiency virus 1, HOS-CD4-CCR5
Experimental: (§1) On the day before the test, 1×10^5/ml of HOS-CD4-CCR5 cells were inoculated in 96-well plates with 100 μl for each well. The compound to be tested was subject to 5-fold dilution in 96-well microtiter plate with DMEM complete medium (containing 10% FBS). The starting concentration was 1 μM and six dilutions were obtained. Triplicate wells were set for each dilution and each well contained 100 μl mixture. While wells not containing drugs were set as control. The supernatant was removed and 100 μl of drug was added and incubated for 2 h. Then 100 μl of HIV-1SF162 and HIV-1Ba-L were added to dilute supernatant. The cells were infected for 1 h, free virus was washed out and drug with the same final concentration was added. MVC was used as positive control. The cells were cultured at 37° C. with 5% CO2 for three days. The supernatant was collected, lysed and inactivated with 0.5% Triton X-100. The inhibition effect of drug on HIV-1 replication was detected using p24 antigen capture ELISA method.

HIV-1SF162 virus strain [3] = assay: Inhibition of viral replication in PBMC infected with HIV-1SF162; assay type: cell-based
Experimental: (§2) The virus was titrated according to the modified method of Johnson & Byington. Briefly, the HIV-1 stock solution was subject to four-fold dilution in a 96-well plate (ten gradients) sextuplicate for each gradient, while setting six control-wells. Into each well was added 100 μl (5×10^6/ml) PHA-stimulated PBMC cells and final volume per well was 200 μl. The cells were cultured at 37° C. with 5% CO2. […] On the seventh day, the infected supernatant was collected and lysed with 0.5% Triton X100. The p24 antigen was detected by ELISA and TCID50 of virus was calculated according to Reed & Muench method (50% Tissue culture infection dose).
(§3) The starting concentration was 1 μM, six dilutions were obtained, and each well contained 200 μl mixture. While wells not containing drugs were set as control. […] After homogeneously mixed, the mixture was immediately added to 48-well plate containing diluted drug and each well was added with 200 μl of mixture. MVC was used as positive control. The cells were cultured at 37° C. with 5% CO2 for seven days (drug with the same concentration was added on the third day). The supernatant was collected, lysed and inactivated with 0.5% Triton X-100. The inhibition effect of drug on HIV-1 replication was detected using p24 antigen capture ELISA method.

[4] = Cytotoxicity (CC50) in TZM-bl cells; assay type: cell-based; details: human
[5] = Toxicity test of compounds on HOS-CD4-CCR5 cells (MTT); assay type: cell-based; details: human; HOS-CD4+-CCR5 cells (Table 7)
Experimental: (§4) The compound to be tested was subject to 5-fold dilution in a 96-well microtiter plate with RPMI-1640 or DMEM complete medium (containing 10% FBS) (Six dilution) triplicate for each dilution and 100 μl for each well. While wells not containing drugs were set as control. Into each well was added 100 μl of 4×10^5/ml PM1, HOS-CD4-CCR5 cells or 100 μl of 5×10^6/ml PHA stimulated PBMC. The cells were cultured at 37° C. with 5% CO2 for three days (PBMC cells were cultured for seven days and 100 μl of fresh RPMI-1640 complete medium was supplemented on the third day). Cytotoxicity was tested with MTT assay. OD values were measured by ELx800 microplate reader. The detection wavelength was 570 nm, and the reference wavelength was 630 nm.

HIV-1Ba-L virus strain [6] = assay: Inhibition of viral replication in PBMC infected with HIV-1Ba-L; assay type: cell-based
Experimental: The virus was titrated according to the modified method of Johnson & Byington. Briefly, the HIV-1 stock solution was subject to four-fold dilution in a 96-well plate (ten gradients) sextuplicate for each gradient, while setting six control-wells. Into each well was added 100 μl (5×10^6/ml) PHA-stimulated PBMC cells and final volume per well was 200 μl. The cells were cultured at 37° C. with 5% CO2. On the third day, 100 μl of fresh RPMI-1640 complete medium was supplemented. On the seventh day, the infected supernatant was collected and lysed with 0.5% Triton X100. The p24 antigen was detected by ELISA and TCID50 of virus was calculated according to Reed & Muench method (50% Tissue culture infection dose).
The compound to be tested was subject to 5-fold dilution in 48-well plate with RPMI-1640 complete medium (containing 10% FBS). The starting concentration was 1 μM, six dilutions were obtained, and each well contained 200 μl mixture. While wells not containing drugs were set as control. Virus (MOI=0.01) was added to 5×10^6/ml of PBMC cells which have been stimulated by PHA for 72 h. After homogeneously mixed, the mixture was immediately added to 48-well plate containing diluted drug and each well was added with 200 μl of mixture. MVC was used as positive control. The cells were cultured at 37° C. with 5% CO2 for seven days (drug with the same concentration was added on the third day). The supernatant was collected, lysed and inactivated with 0.5% Triton X-100. The inhibition effect of drug on HIV-1 replication was detected using p24 antigen capture ELISA method.

HIV-1KM018 virus strain = assay: Inhibition of viral replication in PBMC infected with HIV-1KM018; assay type: cell-based; details: Human immunodeficiency virus 1, PBMC
Experimental: as §2, §3

[7] = Toxicity test of compounds on PBMC cells (MTT); assay type: cell-based; details: human; PBMC cells (Table 4)
Experimental: as §4

HIV-1Ba-L virus strain [8] = assay: Inhibition of viral replication in HOS-CD4-CCR5 cells infected with HIV-1Ba-L; assay type: cell-based
Experimental: as §1

[9] = marketed drug, literature value, species not stated; cited from earlier work
CYP2D6 = CYP2D6 (Homo sapiens (Human), UniProt P10635); assay: CYP450 inhibition activity assay (Vivid kit) CYP2D6; assay type: in vitro ADME; details: CYP450 subtype (μM) 2D6 (IC50)
Sequence of CYP2D6 (P10635 whole entry): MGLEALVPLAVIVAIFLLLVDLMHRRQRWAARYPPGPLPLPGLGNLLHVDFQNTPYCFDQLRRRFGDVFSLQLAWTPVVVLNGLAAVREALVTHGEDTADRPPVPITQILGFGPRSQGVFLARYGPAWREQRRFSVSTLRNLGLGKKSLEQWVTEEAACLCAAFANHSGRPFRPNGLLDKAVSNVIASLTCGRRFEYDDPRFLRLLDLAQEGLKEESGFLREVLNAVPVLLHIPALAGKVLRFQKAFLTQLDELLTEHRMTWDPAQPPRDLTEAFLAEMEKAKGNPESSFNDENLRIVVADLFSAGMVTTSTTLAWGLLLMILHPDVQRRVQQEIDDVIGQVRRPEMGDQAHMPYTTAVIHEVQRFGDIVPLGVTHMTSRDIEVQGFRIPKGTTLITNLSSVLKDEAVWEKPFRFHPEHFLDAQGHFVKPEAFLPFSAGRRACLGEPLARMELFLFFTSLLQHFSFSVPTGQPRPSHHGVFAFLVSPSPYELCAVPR
Experimental: (§5) VividR CYP450 Screening Kits can be used to evaluate the effects on CYP450 subtypes (CYP1A2, CYP2D6, CYP2C9, CYP2C19, CYP3A4-T and CYP3A4-M) and the substrate VividR in the kit can be metabolizd to a product which can emit strong fluorescence in an aqueous solution by specific CYP450 enzymes.
(§6) The compounds to be tested and positive compound were added to corresponding wells and DMSO was added to control wells.
(§7) CYP450 enzyme was added to the compounds to be tested, positive compound and DMSO control wells. The enzyme dilution was used to replace enzyme and added to DMSO wells as test background. The mixture was vibrated and mixed for 1 minute, and then incubated at room temperature for 20 minutes.
(§8) NADP^+ regeneration system and the substrate were added to initiate the reaction and incubated at room temperature for 60 minutes.

CYP2C19 = CYP2C19 (Homo sapiens (Human), UniProt P33261); assay: CYP450 inhibition activity assay (Vivid kit) CYP2C19; assay type: in vitro ADME; details: CYP450 subtype (μM) 2C19 (IC50)
Sequence of CYP2C19 (P33261 whole entry): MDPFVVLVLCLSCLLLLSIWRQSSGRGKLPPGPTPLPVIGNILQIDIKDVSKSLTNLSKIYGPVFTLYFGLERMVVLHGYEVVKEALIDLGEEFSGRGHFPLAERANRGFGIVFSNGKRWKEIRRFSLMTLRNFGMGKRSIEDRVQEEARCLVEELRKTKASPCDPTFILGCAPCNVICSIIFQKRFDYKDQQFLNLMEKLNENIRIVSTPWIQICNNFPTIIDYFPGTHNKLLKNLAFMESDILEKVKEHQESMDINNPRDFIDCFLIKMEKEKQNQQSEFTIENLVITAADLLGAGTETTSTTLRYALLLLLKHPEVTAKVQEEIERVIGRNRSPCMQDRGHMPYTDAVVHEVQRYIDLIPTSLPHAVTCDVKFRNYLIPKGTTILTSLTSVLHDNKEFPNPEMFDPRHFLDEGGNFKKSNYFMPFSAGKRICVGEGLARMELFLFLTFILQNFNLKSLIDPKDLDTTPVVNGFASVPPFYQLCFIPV
Experimental: as §5, §6, §7, §8

CYP1A2 = CYP1A2 (Homo sapiens (Human), UniProt P05177); assay: CYP450 inhibition activity assay (Vivid kit) CYP1A2; assay type: in vitro ADME; details: CYP450 subtype (μM) 1A2 (IC50)
Sequence of CYP1A2 (P05177 whole entry): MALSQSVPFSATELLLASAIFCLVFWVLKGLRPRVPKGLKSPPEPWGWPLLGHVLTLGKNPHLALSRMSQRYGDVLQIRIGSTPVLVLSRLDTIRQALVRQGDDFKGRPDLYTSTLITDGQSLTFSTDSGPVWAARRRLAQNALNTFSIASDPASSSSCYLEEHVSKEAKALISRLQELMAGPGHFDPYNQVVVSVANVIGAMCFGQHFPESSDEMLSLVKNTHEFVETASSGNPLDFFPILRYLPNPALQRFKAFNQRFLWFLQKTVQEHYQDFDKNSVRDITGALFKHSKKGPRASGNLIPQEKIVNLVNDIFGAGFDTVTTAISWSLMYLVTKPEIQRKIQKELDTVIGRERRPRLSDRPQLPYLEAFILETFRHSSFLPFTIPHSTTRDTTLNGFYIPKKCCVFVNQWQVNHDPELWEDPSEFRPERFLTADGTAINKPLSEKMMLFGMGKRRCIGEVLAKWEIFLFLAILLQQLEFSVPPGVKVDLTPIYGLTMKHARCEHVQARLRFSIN
Experimental: as §5, §6, §7, §8

CYP2C9 = CYP2C9 (Homo sapiens (Human), UniProt P11712); assay: CYP450 inhibition activity assay (Vivid kit) CYP2C9; assay type: in vitro ADME; details: CYP450 subtype (μM) 2C9 (IC50)
Sequence of CYP2C9 (P11712 whole entry): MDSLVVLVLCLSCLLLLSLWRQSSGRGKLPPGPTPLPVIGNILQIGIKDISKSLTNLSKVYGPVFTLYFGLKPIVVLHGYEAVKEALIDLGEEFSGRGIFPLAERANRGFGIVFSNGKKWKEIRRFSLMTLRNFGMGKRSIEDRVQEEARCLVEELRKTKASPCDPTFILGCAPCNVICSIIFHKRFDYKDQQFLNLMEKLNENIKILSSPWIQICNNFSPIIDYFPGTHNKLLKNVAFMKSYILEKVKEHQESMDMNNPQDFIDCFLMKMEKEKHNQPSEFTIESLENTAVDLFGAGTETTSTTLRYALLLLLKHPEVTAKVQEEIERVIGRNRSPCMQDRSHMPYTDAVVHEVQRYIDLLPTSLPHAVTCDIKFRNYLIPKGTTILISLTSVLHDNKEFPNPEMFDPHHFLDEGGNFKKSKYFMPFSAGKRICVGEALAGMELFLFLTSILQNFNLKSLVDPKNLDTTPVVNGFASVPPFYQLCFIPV
Experimental: as §5, §6, §7, §8

[10] = TZM-bl cells infected with HIV-1SF162
[11] = Human immunodeficiency virus 1, PBMC
[12] = Human immunodeficiency virus 1, TZM-bl
[13] = TZM-bl cells (Table 3), read-out: CC50

Compound | EC50 (HIV-1SF162 virus strain [1]; [10]) | therapeutic index (TI) (HIV-1SF162 virus strain [1]; [10]) | CC50 (TZM-bl cells) | Tm (° C.) (CCR5 protein) | IC50 (CCR5) | calcium influx inhibition effect in words, versus positive control compounds (CCR5) | hERG inhibition activity in words, versus positive control compounds (hERG) | EC50 (HIV-1SF162 virus strain [1]; [12]) | also measured
4,4-difluoro-N-[(1S)-3-[exo-3-(3-isopropyl-5-methyl-4H-1,2,4-triazol-4-yl)-8-azabicyclo[3.2.1]octane-8-yl]-1-(pyridin-3-yl)propyl]cyclohexane-1-carboxamide [Compound 6] | 1.51 µg/mL | 66.23 | >100 µg/mL | 58.56 °C | 6.9 nM | better than the positive control compounds |  |  | 
4-ethyl-N-[(1S)-3-[exo-3-(3-isopropyl-5-methyl-4H-1,2,4-triazol-4-yl)-8-azabicyclo[3.2.1]octane-8-yl]-1-(thiophen-3-yl)propyl]cyclopentane-1-carboxamide [Compound 20] | 0.00487 µg/mL | 14308.01 | 69.68 µg/mL | 70.27 °C | 5.14 nM | better than the positive control compounds | better that those of positive control compounds |  | protein stability effect in words, versus positive control compound (CCR5 protein; conclusion from Table 2): comparable with the positive control compound; IC50 (hERG): 14400 nM
Cc1nnc(C(C)C)n1C1CC2CCC(C1)N2CCC(NC(=O)C1CCC(F)(F)CC1)c1cccs1 (stereo not drawn) [Compound 3, 4,4-difluoro-N-[3-[exo-3-(3-isopropyl-5-methyl-4H-1,2,4-triazol-4-yl)-8-azabicyclo[3.2.1]octane-8-yl]-1-(thiophen-2-yl)propyl]cyclohexane-1-carboxamide] |  | >41666.67 |  |  |  |  |  | 0.0024 µg/mL (≈ 0.00462 µM) | EC50 (HIV-1SF162 virus strain [2]): 0.0244 µg/mL (≈ 0.047 µM); EC50 (HIV-1SF162 virus strain [3]; [11]): 0.146 µg/mL (≈ 0.281 µM); therapeutic index (TI) (HIV-1SF162 virus strain [3]; PBMC cells infected with HIV-1SF162): 1874; cytotoxicity in vitro and therapeutic index in words, versus positive control compound (HIV-1SF162 virus strain [1]; TZM-bl cells infected with HIV-1SF162, conclusion from Table 3): better than positive control compound; CC50 at 3 days [4, 13]: > 100 µg/mL; CC50 at 3 days [5]: 334 µg/mL (≈ 643 µM); EC50 (HIV-1Ba-L virus strain [6]; [11]): 0.0912 µg/mL (≈ 0.176 µM); therapeutic index (TI) (HIV-1Ba-L virus strain [6]; PBMC cells infected with HIV-1Ba-L): 3328.9; EC50 (HIV-1KM018 virus strain): 0.0157 µg/mL (≈ 0.0301 µM); CC50 at 7 days [7]: 273 µg/mL (≈ 526 µM); therapeutic index (TI) (HIV-1Ba-L virus strain [8]; HOS-CD4+-CCR5 cells infected with HIV-1Ba-L): 19495; EC50 (HIV-1Ba-L virus strain [8]; Human immunodeficiency virus 1, HOS-CD4-CCR5): 0.0171 µg/mL (≈ 0.033 µM)
Cc1nnc(C(C)C)n1C1CC2CCC(C1)N2CC[C@H](NC(=O)C1CCCCC1)c1cccnc1 (stereo partly drawn) [Compound 8, N-[(1S)-3-[exo-3-(3-isopropyl-5-methyl-4H-1,2,4-triazol-4-yl)-8-azabicyclo[3.2.1]octane-8-yl]-1-(pyridin-3-yl)propyl]cyclohexane-1-carboxamide] |  | >37.17 |  | 60.61 °C | 21.9 nM |  | better that those of positive control compounds | 2.69 µg/mL (≈ 5.62 µM) | CC50 [4]: > 100 µg/mL
Cc1nnc(C(C)C)n1[C@@H]1C[C@H]2CC[C@@H](C1)N2CC[C@H](NC(=O)C1CCC(F)(F)CC1)c1cccc(F)n1 [Compound 34, 4,4-difluoro-N-[(1S)-3-[exo-3-(3-isopropyl-5-methyl-4H-1,2,4-triazol-4-yl)-8-azabicyclo[3.2.1]octane-8-yl]-1-(6-fluoropyridin-2-yl)propyl]cyclohexane-1-carboxamide] | >40 µg/mL |  | >200 µg/mL |  | 143 nM |  |  |  | 
Cc1nnc(C(C)C)n1[C@@H]1C[C@H]2CC[C@@H](C1)N2CC[C@H](NC(=O)C1CCC(F)(F)CC1)c1ccccc1 [Maraviroc, reference compound] |  |  |  | 72.17 °C |  |  |  | 0.00814 µg/mL (≈ 0.0158 µM) | CC50 [4, 13]: > 200 µg/mL; bioavailability as reported [9]: 5%; IC50 (CYP2D6): > 25 µM; IC50 (CYP2C19): > 25 µM; IC50 (CYP1A2): > 25 µM; IC50 (CYP2C9): 14.4 µM
